Values quoted from earlier work in patent US20260157999A1, “[…] OF ALKALOID COMPOUNDS AND […] USES THEREOF” (Sensorium Therapeutics, Inc., priority 2021, published 2026).

Conditions: described pharmacokinetics, rapid metabolism and excretion

For COc1ccc(C23CCC(=O)CC2N(C)CC3)cc1OC (stereo not shown) [Mesembrine, 3a-(3,4-dimethoxyphenyl)-octahydro-1-methyl-6H-indol-6-one], the half-life in plasma is given as “less than 2 hours”.
